Results on 4 compounds are retold here after patent publication US20210038587A1, “METHODS AND COMPOSITIONS FOR TREATING NON-ERK MAPK PATHWAY INHIBITOR-RESISTANT CANCERS” (BIOMED VALLEY DISCOVERIES, INC., priority 2013, published 2021).

Read-outs that look alike come from different tables or passages of the source.

Assay [1] relates to A375 cells. Put plainly: Proliferation assay (Alamar Blue, 96 h) in parental A375 cells. The format is cell-based. Conditions: Homo sapiens, A-375, Parental A375.
Protocol: Proliferation assays were used to track changes in sensitivity to the escalated agent(s) at appropriate time intervals (e.g. each month, although the timing is dependent on adequate cell numbers being available). For proliferation assays, cells were seeded in 96-well plates at 3000 cells per well in drug-free DMEM medium containing 10% FBS and allowed to adhere overnight prior to addition of compound or vehicle control. The final DMSO concentration was constant at 0.1%. Test compounds were incubated with the cells for 96 hours at 37° C. and 5% CO2 in a humidified atmosphere. Alamar Blue 10% (v/v) was then added and incubated for 4 hours and fluorescent product was detected using a BMG FLUOstar plate reader. The average media only background value was deducted and the data analyzed using a 4-parameter logistic equation in GraphPad Prism.
For assessment of drug sensitivity in cell-line models of acquired resistance, drug sensitivity of dose-escalated A375 cells and isogenic RKO cells was assessed in 96-hour proliferation assays. […] For the A375 assays Alamar blue (ThermoFisher) 10% (v/v) was added and incubated for 4 h, and fluorescent product was then detected using a BMG FLUOstar. The average media only background value was deducted and the data analyzed using a 4-parameter logistic equation in GraphPad Prism.
The subject of assay [2] is dose-escalated A375 cells. Briefly: Proliferation assay (Alamar Blue, 96 h) in dose-escalated A375 cell lines. The format is cell-based, human. Conditions: for Fold Change of IC50: BRAFi- + MEKi-resistant versus parental A375; for IC50: Homo sapiens.
Another assay deals with RKO Parental. Put plainly: Single agent proliferation assay (CellTiter-Glo, 96 h). The class given is cell-based. The method, then: (§1) For assessment of drug sensitivity in cell-line models of acquired resistance, drug sensitivity of dose-escalated A375 cells and isogenic RKO cells was assessed in 96-hour proliferation assays. […] For the A375 assays Alamar blue (ThermoFisher) 10% (v/v) was added and incubated for 4 h, and fluorescent product was then detected using a BMG FLUOstar.
(§2) Compounds were prepared from DMSO stocks to give the desired final concentrations. The final DMSO concentration was constant at 0.1%. […] CellTiter-Glo® reagent (Promega, Madison, Wis.) was added according to manufacturer's instructions and luminescence detected using the BMG FLUOstar plate reader (BMG Labtech, Ortenberg, Germany).
For orientation: ATP-based viability assays read luminescence as a measure of living cells.

Assay [3] relates to RKO MEK1 (Q56P/+) Clone 2. Described as above. The format is cell-based. To be noted: RKO MEK1 Q56P/+ Cl.2. Here is the method:
as §1
(§3) RKO MEK1 Q56P Isogenic cells were produced by Horizon Discovery (Cambridge, UK; #HD 106-019) using a recombinant AAV-mediated gene targeting strategy. Briefly, rAAV virus was generated following transfection of the appropriate targeting vector and helper vectors in HEK293T cells, purified using an AAV purification kit (Virapur, San Diego, USA) and titrated using qPCR. Parental homozygous RKO cells (homozygous wild type for MEK1) were then infected with rAAV virus and clones that had integrated the selection cassette were identified by G418 selection and expanded. Correctly targeted clones that were heterozygous for knock-in of the MEK1 Q56P point mutation into a single allele were identified by PCR and sequencing.
as §2

The subject of assay [4] is RKO MEK1 (Q56P/+) Clone 1. The description is as above. The class given is cell-based. Conditions: RKO MEK1 Q56P/+ Cl.1. The method, then:
as §1, §3, §2

For assay [5], the system named is A375 xenografts. Put plainly: Antitumor activity in A375 xenografts, monotherapy. The class given is in vivo, mice. The method, then:
(§4) For measurement of antitumor activity in A375 xenografts, xenografts were initiated with A375 cells maintained by serial subcutaneous transplantation in female athymic nude mice. Each test mouse received an A375 tumor fragment (1 mm^3) implanted subcutaneously in the right flank. Once tumors reached target size (80-120 mm^3), animals were randomized into treatment and control groups, and drug treatment was initiated.
Oral temozolomide was administered as a positive reference compound at 75 or 175 mg/kg once daily (QD) for a total of five treatments (QD×5).

The subject of assay [6] is A375 xenografts. Briefly: A375 xenografts, BVD-523 in combination with dabrafenib. The format is in vivo, mice. To be noted: 100 mg/kg QD.
Source text: as §4
(§5) Combination dosing was stopped on Day 20 to monitor for tumor regrowth. Animals were monitored individually and euthanized when each tumor reached an endpoint volume of 2000 mm^3, or the final day (Day 45), whichever came first, and median time to endpoint (TTE) calculated. The combination was also evaluated in an upstaged A375 model where larger tumors in the range 228-1008 mm^3 were evaluated. Here, mice were randomized into 1 group (Group 1) of 14 and 4 groups (Groups 2-5) of 20. […] Tumors were measured twice weekly. Combination dosing was stopped on Day 42 to monitor for tumor regrowth through study end (Day 60). Treatment outcome was determined from % TGD, defined as the percent increase in median TTE for treated versus control mice, with differences between groups analyzed via log rank survival analysis. […] Mice were also monitored for CR and PR responses. Animals with a CR at the end of the study were additionally classified as TFS.

The test system of assay [7] is patient-derived xenograft (AT052C). Put plainly: Patient-derived xenograft from vemurafenib-refractory BRAFV600E melanoma. The class given is in vivo, mice. A general note: Xenograft models place foreign cells or tissue in a host animal.
Source text: Tumor fragments were harvested from host animals and implanted into immune-deficient mice.
Another assay deals with upstaged A375 xenografts. Briefly: Upstaged A375 xenograft model, BVD-523 in combination with dabrafenib. The class given is in vivo, mice. Conditions: 50 mg/kg BID; 11 evaluable mice. Here is the method:
as §5

In assay [8] the test system is BRAF^V600-mutant melanoma. Conditions: cited from earlier work.
The test system of assay [9] is A375 cells. Put plainly: Dose escalation study (acquisition of resistance). The format is cell-based, human. Conditions: progressively increasing concentrations.
Source text: Cancer cell lines were maintained in cell culture under standard media and serum conditions. For dose escalation studies, A375 cells were split, grown to about 40-60% confluence, and then treated with the initial dose of the specified drug.
Cells were then allowed to grow until 70-90% confluence and split. Split ratios were kept as “normal” as possible and reasonably consistent between treatments (e.g. a minimum of 50% of the normal split ratio of the parentals). Medium was refreshed every 3-4 days. When cells again reached about 40-60% confluence, the dose was escalated. In the event that the 40-60% window was missed, the cells were split again and dosed once they reached 40-60% confluence. Again, medium was refreshed every 3-4 days.
Cells were allowed to grow until ˜70-90% confluence and split; medium was refreshed every 3-4 days. […] This process was repeated as required.
Assay [10] concerns SW48 cell lines heterozygous for knock-in of mutant KRAS. Briefly: Proliferation assay in isogenic SW48 lines with knock-in of mutant KRAS (Alamar blue, 96 h). To be noted: versus control SW48. The format is cell-based. Here is the method: Isogenic SW48 cell lines heterozygous for knock-in of mutant KRAS (De Roock et al 2010, JAMA, 304, 1812-1820) were obtained from Horizon Discovery (Catalogue numbers; HD 103-002, HD 103-006 HD 103-007, HD 103-009, HD 103-010, HD 103-011, HD 103-013). […] Viability was then assessed using Alamar blue.

The mark [11] stands for this setting: A-375, BRAFi- + MEKi-resistant (dabrafenib and trametinib combination-resistant) A375 population, read-out: IC50.
[12] abbreviates: A-375, Month 1, Dab/Tram-escalated line, read-out: Relative IC50.
The mark [13] stands for this setting: A-375, Month 1, Tram/523-escalated line, read-out: Relative IC50.
Setting [14] is: A-375, Month 2, Dab/Tram-escalated line, read-out: Relative IC50.
Where [15] appears, read: A-375, Month 2, Tram/523-escalated line, read-out: Relative IC50.
[16] abbreviates: A-375, Month 3, Dab/Tram-escalated line, read-out: Relative IC50.
Setting [17] is: A-375, Month 3, Tram/523-escalated line, read-out: Relative IC50.

As a reminder, the IC50 is the concentration at which inhibition is half-maximal. Take `CC(=O)Nc1cccc(-n2c(=O)n(C3CC3)c(=O)c3c(Nc4ccc(I)cc4F)n(C)c(=O)c(C)c32)c1` [Trametinib]: the IC50 with A375 cells [1] was found to be 0.2 nM; in assay [2] (setting [11]), 2.7 nM; in assay [2] (setting [12]), 3.9 nM; in assay [2] (setting [13]) it was 2.5 nM; in assay [2] (setting [14]), 12.6 nM; in assay [2] (setting [15]), 4.6 nM. In addition, the IC50 stood at 2.7 nM in assay [2] (setting [16]); 11.2 nM in assay [2] (setting [17]); 6 nM in the assay with RKO Parental; 80 nM in [3]; 93 nM in assay [4]. For the same compound, the entries for the “Fold Change of IC50” value in assay [2] and in [2] (listed as trametinib) were “+13.5 fold” and 13.5 fold, respectively.
Consider `Cn1nnc2c(C(N)=O)ncn2c1=O` [temozolomide], for which the figures for the “tumor growth inhibition (TGI)” value in the assay with A375 xenografts [5] (75 mg/kg QD×5) and with A375 xenografts [5] (175 mg/kg QD×5) were 34% and 78%, respectively.
The TGI is how far tumour growth fell short of that in controls. For the compound `CC(C)(C)c1nc(-c2cccc(NS(=O)(=O)c3c(F)cccc3F)c2F)c(-c2ccnc(N)n2)s1` [Dabrafenib], the PR in the assay on A375 xenografts [6] is on record as 1. For the same compound, the IC50 in assay [2] (A-375, BRAFi- + MEKi-resistant (dabrafenib and trametinib combination-resistant) A375 population) was 17.9 nM; in [2] (A-375, read-out: Relative IC50, Month 1, BVD-523-escalated line) it was 8 nM; in assay [2] (A-375, read-out: Relative IC50, Month 1, Dab/523-escalated line), 68 nM; in assay [2] (A-375, read-out: Relative IC50, Month 1, Dab/Tram-escalated line), 58 nM; in [2] (A-375, read-out: Relative IC50, Month 1, Tram-escalated line), 29 nM; in assay [2] (A-375, read-out: Relative IC50, Month 1, Tram/523-escalated line), 11 nM. Besides, the IC50 in assay [2] (A-375, read-out: Relative IC50, Month 2, BVD-523-escalated line) worked out at 697 nM; in [2] (A-375, read-out: Relative IC50, Month 2, Dab-escalated line), 11.5 nM; in assay [2] (A-375, read-out: Relative IC50, Month 2, Dab/523-escalated line) it was 218 nM; in [2] (A-375, read-out: Relative IC50, Month 2, Dab/Tram-escalated line), 256 nM; in [2] (A-375, read-out: Relative IC50, Month 2, Tram/523-escalated line), 68 nM; in [2] (A-375, read-out: Relative IC50, Month 3, BVD-523-escalated line), 18.4 nM. Further, the half-inhibitory concentration (IC50) worked out at 2.5 nM in assay [2] (A-375, read-out: Relative IC50, Month 3, Dab-escalated line); 337 nM in assay [2] (A-375, read-out: Relative IC50, Month 3, Dab/523-escalated line); 17.9 nM in assay [2] (A-375, read-out: Relative IC50, Month 3, Dab/Tram-escalated line); 73 nM in [2] (A-375, read-out: Relative IC50, Month 3, Tram/523-escalated line). The compound also gave a TGI in assay [7] (50 mg/kg BID) of 22%. Also, the “activity in patient-derived line ST052C” value in assay [7] (dabrafenib 50 mg/kg BID, BVD-523 100 mg/kg BID) was “acquired cross-resistance”. The CRs with upstaged A375 xenografts turned out to be 5. Besides, the PRs in the assay with upstaged A375 xenografts turned out to be 5. In the assay on upstaged A375 xenografts, the TFS is reported as 3. The overall survival in assay [8] (Long et al. 2015, BRAF^V600E/K) is recorded as 18.7 months. Also, in assay [8] (Long et al. 2015), the overall response is on record as 53%. Further, the “progression-free survival (PFS)” value in assay [8] (Long et al. 2015) is on record as 8.8 months. The response rate result in assay [8] (phase III, single agent versus dacarbazine) was “approximately 50%”. Moreover, the “emergence of drug-resistant cell lines” value in the assay with A375 cells [9] was “readily obtained”.
As to `CC(=O)O[C@H]1C(=O)[C@@]2(C)[C@H]([C@H](OC(=O)c3ccccc3)[C@]3(O)C[C@H](OC(=O)[C@H](O)[C@@H](NC(=O)c4ccccc4)c4ccccc4)C(C)=C1C3(C)C)[C@]1(OC(C)=O)CO[C@@H]1C[C@@H]2O` [Paclitaxel], the half-maximal inhibitory concentration (IC50) turned out to be 1.9 nM in the assay with A375 cells [1]; 3.5 nM in [2] (setting [11]); 3.5 nM in assay [2] (setting [12]); 3.4 nM in assay [2] (setting [13]); 4.7 nM in [2] (setting [14]); 8.9 nM in assay [2] (setting [15]). In addition, the half-maximal inhibitory concentration (IC50) turned out to be 4.7 nM in assay [2] (setting [16]); 8.9 nM in assay [2] (setting [17]); 2 nM in the assay on RKO Parental; 2 nM in assay [3]; 2 nM in assay [4]. Besides, the “Fold Change of IC50” value in assay [2] was “+1.8 fold”. Also, the “sensitivity after knock-in of KRAS mutant alleles” value in assay [10] was “unaltered”.
